Experimental data as given in the Kinase Knowledgebase extract (Sharma et al. 2016).

The compounds below were run against PIK3CA (human) (UniProt P42336) (assay: Assessment of PIK3CA Kinase Activity).
Chain of PIK3CA (human) (P42336 whole entry, looked up): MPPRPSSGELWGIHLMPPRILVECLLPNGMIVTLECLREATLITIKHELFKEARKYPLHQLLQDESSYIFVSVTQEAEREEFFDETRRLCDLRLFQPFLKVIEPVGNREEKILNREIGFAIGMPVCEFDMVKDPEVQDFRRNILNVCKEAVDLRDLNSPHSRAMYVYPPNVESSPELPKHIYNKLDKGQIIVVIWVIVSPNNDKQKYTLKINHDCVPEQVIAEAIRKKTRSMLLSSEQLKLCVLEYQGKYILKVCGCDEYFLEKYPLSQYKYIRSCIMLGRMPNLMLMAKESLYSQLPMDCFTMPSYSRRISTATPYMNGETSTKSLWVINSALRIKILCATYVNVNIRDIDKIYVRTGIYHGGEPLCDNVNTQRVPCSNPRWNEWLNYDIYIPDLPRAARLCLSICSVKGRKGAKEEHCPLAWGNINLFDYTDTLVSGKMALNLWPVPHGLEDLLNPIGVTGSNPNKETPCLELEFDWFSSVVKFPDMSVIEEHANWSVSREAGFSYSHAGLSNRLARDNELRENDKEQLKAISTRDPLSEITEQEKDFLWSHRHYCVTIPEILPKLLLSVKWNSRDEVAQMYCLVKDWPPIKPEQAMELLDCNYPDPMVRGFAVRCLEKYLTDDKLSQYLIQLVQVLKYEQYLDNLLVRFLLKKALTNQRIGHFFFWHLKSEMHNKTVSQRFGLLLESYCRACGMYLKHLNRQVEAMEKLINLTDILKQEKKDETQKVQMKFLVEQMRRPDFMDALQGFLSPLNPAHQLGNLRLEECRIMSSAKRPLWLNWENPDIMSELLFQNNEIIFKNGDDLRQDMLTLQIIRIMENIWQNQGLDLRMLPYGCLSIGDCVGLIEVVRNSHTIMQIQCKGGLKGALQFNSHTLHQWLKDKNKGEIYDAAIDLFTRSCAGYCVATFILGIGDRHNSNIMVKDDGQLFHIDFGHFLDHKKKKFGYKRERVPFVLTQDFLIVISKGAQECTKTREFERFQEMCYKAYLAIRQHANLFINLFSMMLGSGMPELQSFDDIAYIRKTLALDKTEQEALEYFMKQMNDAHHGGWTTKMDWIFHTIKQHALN

Compound | IC50 [nM]
Nc1ncc(-c2cnc3sc(NCCN4CCNCC4)nn23)cc1C(F)(F)F | 50 to 1000
CC(C)S(=O)(=O)N1CCC(Nc2nn3c(-c4cnc(N)c(C(F)(F)F)c4)cnc3s2)CC1 | 291
COc1cncc(-c2cnc3sc(NC4CCN(S(C)(=O)=O)CC4)nn23)c1 | 50 to 1000
CN(c1nn2c(-c3cnc(N)c(C(F)(F)F)c3)cnc2s1)[C@H]1CC[C@H](O)CC1 | 50 to 1000
Nc1ncc(-c2cnc3sc(N4CC5(CCNCC5)C4)nn23)cc1C(F)(F)F | 50 to 1000
CN(c1nn2c(-c3cnc(N)c(C(F)(F)F)c3)cnc2s1)C1CCNCC1 | 50 to 1000
CS(=O)(=O)N1CCC(Nc2nn3c(-c4cncc(C(F)(F)F)c4)cnc3s2)CC1 | 50 to 1000
CC(C)(C)OC(=O)N1CCC2(CC1)CCN(c1nn3c(-c4cnc(N)c(C(F)(F)F)c4)cnc3s1)CC2 | 1600
Nc1ncc(-c2cnc3sc(NCC4CCNCC4)nn23)cc1C(F)(F)F | 50 to 1000
CS(=O)(=O)NC1CCCN(c2nn3c(-c4cnc(N)c(C(F)(F)F)c4)cnc3s2)C1 (stereo not given) | 50 to 1000
CN[C@H]1CC[C@H](N(C)c2nn3c(-c4cnc(N)c(C(F)(F)F)c4)cnc3s2)CC1 | 50 to 1000
Nc1ccc(-c2cnc3sc(N[C@H]4CC[C@H](O)CC4)nn23)cn1 | 50 to 1000
Nc1ncc(-c2cnc3sc(N4CCC(N)C4)nn23)cc1C(F)(F)F (stereo not given) | 1000
COC(=O)C1CCN(c2nn3c(-c4cnc(N)c(C(F)(F)F)c4)cnc3s2)CC1 | 297
CS(=O)(=O)N1CCC(Nc2nn3c(-c4cnc(N5CCNCC5)c(C(F)(F)F)c4)cnc3s2)CC1 | 1400
CC(C)(C)OC(=O)NCCCNc1nn2c(-c3cnc(N)c(C(F)(F)F)c3)cnc2s1 | 50 to 1000
CC(C)(C)OC(=O)N1CCC2(CCCN(c3nn4c(-c5cnc(N)c(C(F)(F)F)c5)cnc4s3)C2)CC1 | 50 to 1000
Nc1ncc(-c2cnc3sc(N4C[C@H]5CNC[C@H]5C4)nn23)cc1C(F)(F)F | 50 to 1000
COC1CCN(c2nn3c(-c4cnc(N)c(C(F)(F)F)c4)cnc3s2)CC1 | 50 to 1000
CS(=O)(=O)NCC1CCN(c2nn3c(-c4cnc(N)c(C(F)(F)F)c4)cnc3s2)CC1 | 50 to 1000
Nc1ncc(-c2cnc3sc(N4CCNCC4)nn23)cc1C(F)(F)F | 1300

Compound | IC50 [nM]
CC(C)(C)OC(=O)NCC1CCN(c2nn3c(-c4cnc(N)c(C(F)(F)F)c4)cnc3s2)CC1 | 50 to 1000
COc1cncc(-c2cnc3sc(NCC4CCN(S(C)(=O)=O)CC4)nn23)c1 | 50 to 1000
NCC1CCCN(c2nn3c(-c4cnc(N)c(C(F)(F)F)c4)cnc3s2)C1 (stereo not given) | 50 to 1000
CC(C)(C)OC(=O)N1CCC2(CC1)CC(Nc1nn3c(-c4cnc(N)c(C(F)(F)F)c4)cnc3s1)C2 | 50 to 1000
CS(=O)(=O)NC1CCN(c2nn3c(-c4cnc(N)c(C(F)(F)F)c4)cnc3s2)C1 (stereo not given) | 50 to 1000
CC(C)(C)OC(=O)N[C@H]1CC[C@@H](Nc2nn3c(-c4cnc(N)c(C(F)(F)F)c4)cnc3s2)CC1 | 50 to 1000
NCCCNc1nn2c(-c3cnc(N)c(C(F)(F)F)c3)cnc2s1 | 50 to 1000
Nc1ncc(-c2c(Cl)nc3sc(N[C@H]4CC[C@H](NS(=O)(=O)c5ccc(F)cc5F)CC4)nn23)cc1C(F)(F)F | 1700
CN(c1nn2c(-c3cnc(N)c(C(F)(F)F)c3)cnc2s1)[C@H]1CC[C@@](C)(O)CC1 | 50 to 1000
CC(=O)NC1CCCN(c2nn3c(-c4cnc(N)c(C(F)(F)F)c4)cnc3s2)C1 (stereo not given) | 274
CS(=O)(=O)NCCNc1nn2c(-c3cnc(N)c(C(F)(F)F)c3)cnc2s1 | 269
Nc1ncc(-c2cnc3sc(N4CCCC(O)C4)nn23)cc1C(F)(F)F (stereo not given) | 50 to 1000
NCC1CCN(c2nn3c(-c4cnc(N)c(C(F)(F)F)c4)cnc3s2)CC1 | 50 to 1000
CN(c1nn2c(-c3cnc(N)c(C(F)(F)F)c3)cnc2s1)C1CCC(=NOCCF)CC1 (stereo not given) | 50 to 1000
COc1cncc(-c2cnc3sc(NCCCNS(C)(=O)=O)nn23)c1 | 50 to 1000
CCNC(=O)NC1CCCN(c2nn3c(-c4cnc(N)c(C(F)(F)F)c4)cnc3s2)C1 (stereo not given) | 483
CC(=O)O[C@H]1CC[C@H](Nc2nn3c(-c4cnc(N)c(C(F)(F)F)c4)c(Cl)nc3s2)CC1 | 50 to 1000
CCNC(=O)NCCNc1nn2c(-c3cnc(N)c(C(F)(F)F)c3)cnc2s1 | 50 to 1000
Nc1ncc(-c2cnc3sc(N4CCC(C(=O)O)CC4)nn23)cc1C(F)(F)F | 50 to 1000
CC(C)(C)OC(=O)N1CCC(CNc2nn3c(-c4cnc(N)c(C(F)(F)F)c4)cnc3s2)CC1 | 50 to 1000
NC(=O)C1CCN(c2nn3c(-c4cnc(N)c(C(F)(F)F)c4)cnc3s2)CC1 | 50 to 1000

Compound | IC50 [nM]
CC(=O)N[C@H]1CC[C@@H](Nc2nn3c(-c4cnc(N)c(C(F)(F)F)c4)cnc3s2)CC1 | 50 to 1000
CN1CCC(CNc2nn3c(-c4cnc(N)c(C(F)(F)F)c4)cnc3s2)CC1 | 301
CS(=O)(=O)N1CCN(c2nn3c(-c4cnc(N)c(C(F)(F)F)c4)cnc3s2)CC1 | 50 to 1000
Nc1ncc(-c2cnc3sc(N4CCCC(C(=O)O)C4)nn23)cc1C(F)(F)F (stereo not given) | 50 to 1000
COc1cncc(-c2cnc3sc(NC4CCN(C(=O)OC(C)(C)C)CC4)nn23)c1 | 50 to 1000
c1cc(-c2cnc3sc(N4CCOCC4)nn23)c2cn[nH]c2c1 | 50 to 1000
CN(c1nn2c(-c3cnc(N)c(C(F)(F)F)c3)cnc2s1)C1CCN(C(=O)OC(C)(C)C)CC1 | 50 to 1000
Nc1ncc(-c2cnc3sc(N4CCC(O)CC4)nn23)cc1C(F)(F)F | 50 to 1000
CC(C)(C)OC(=O)N1CCN(c2nn3c(-c4cnc(N)c(C(F)(F)F)c4)cnc3s2)CC1 | 50 to 1000
CCNC(=O)N[C@H]1CC[C@@H](Nc2nn3c(-c4cnc(N)c(C(F)(F)F)c4)c(Cl)nc3s2)CC1 | 50 to 1000
Nc1ncc(-c2cnc3sc(N[C@H]4CC[C@H](NS(=O)(=O)c5ccc(F)cc5F)CC4)nn23)cc1C(F)(F)F | 50 to 1000
CCNC(=O)N1CCC(N(C)c2nn3c(-c4cnc(N)c(C(F)(F)F)c4)cnc3s2)CC1 | 50 to 1000
Nc1ncc(-c2cnc3sc(N4CCC(N)CC4)nn23)cc1C(F)(F)F | 50 to 1000
Cc1cncc(-c2cnc3sc(NC4CCN(S(C)(=O)=O)CC4)nn23)c1 | 50 to 1000
CS(=O)(=O)N1CCC2(CC1)CN(c1nn3c(-c4cnc(N)c(C(F)(F)F)c4)cnc3s1)C2 | 50 to 1000
Nc1ncc(-c2c(Cl)nc3sc(N[C@H]4CC[C@@H](N)CC4)nn23)cc1C(F)(F)F | 50 to 1000
CCOC(=O)C1CCCN(c2nn3c(-c4cnc(N)c(C(F)(F)F)c4)cnc3s2)C1 (stereo not given) | 50 to 1000
CS(=O)(=O)N1CCC(Nc2nn3c(-c4cncc(C#N)c4)cnc3s2)CC1 | 50 to 1000
COc1cncc(-c2cnc3sc(NC4CCNCC4)nn23)c1 | 50 to 1000

The remaining lines, values ahead:

IC50 [nM] | Compound
119 | CC(C)(C)OC(=O)N1C[C@@H]2CN(c3nn4c(-c5cnc(N)c(C(F)(F)F)c5)cnc4s3)C[C@@H]2C1
12 | CC(C)(C)OC(=O)N[C@H]1CC[C@H](Nc2nn3c(-c4cnc(N)c(C(F)(F)F)c4)cnc3s2)CC1
86 | CC(C)(C)OC(=O)N1CCN(CCNc2nn3c(-c4cnc(N)c(C(F)(F)F)c4)cnc3s2)CC1
141 | Nc1ncc(-c2cnc3sc(N4CCC5(CCNCC5)CC4)nn23)cc1C(F)(F)F
62 | CN(c1nn2c(-c3cnc(N)c(C(F)(F)F)c3)cnc2s1)C1CCN(S(C)(=O)=O)CC1
42 | Nc1ncc(-c2cnc3sc(N[C@H]4CC[C@H](N)CC4)nn23)cc1C(F)(F)F
27 | CO[C@H]1CC[C@H](N(C)c2nn3c(-c4cnc(N)c(C(F)(F)F)c4)cnc3s2)CC1
129 | Nc1ncc(-c2cnc3sc(NC[C@H]4CC[C@H](O)CC4)nn23)cc1C(F)(F)F
213 | CNC(=O)C1CCCN(c2nn3c(-c4cnc(N)c(C(F)(F)F)c4)cnc3s2)C1 (stereo not given)
85 | Nc1ncc(-c2cnc3sc(N4CCN5CCNCC5C4)nn23)cc1C(F)(F)F (stereo not given)
1 to 50 | C[C@]1(O)CC[C@H](Nc2nn3c(-c4cnc(N)c(C(F)(F)F)c4)cnc3s2)CC1
18 | CC(=O)N1CCC(Nc2nn3c(-c4cnc(N)c(C(F)(F)F)c4)cnc3s2)CC1
1 to 50 | CS(=O)(=O)NCCCNc1nn2c(-c3cnc(N)c(C(F)(F)F)c3)cnc2s1
5 | CCNC(=O)N[C@H]1CC[C@H](Nc2nn3c(-c4cnc(N)c(C(F)(F)F)c4)cnc3s2)CC1
205 | CN(c1nn2c(-c3cnc(N)c(C(F)(F)F)c3)cnc2s1)[C@H]1CC[C@](C)(O)CC1
102 | CS(=O)(=O)NCC1CCCN(c2nn3c(-c4cnc(N)c(C(F)(F)F)c4)cnc3s2)C1 (stereo not given)
17 | Nc1ncc(-c2cnc3sc(NC4CC5(CCNCC5)C4)nn23)cc1C(F)(F)F

IC50 [nM] | Compound
82 | CN(c1nn2c(-c3cnc(N)c(C(F)(F)F)c3)cnc2s1)C1CCC(=NO)CC1 (stereo not given)
77 | Nc1ncc(-c2cnc3sc(N[C@H]4CC[C@@H](O)CC4)nn23)cc1C(F)(F)F
262 | CN1CCN(C(=O)NCCNc2nn3c(-c4cnc(N)c(C(F)(F)F)c4)cnc3s2)CC1
104 | Nc1ncc(-c2c(Cl)nc3sc(N[C@H]4CC[C@H](O)CC4)nn23)cc1C(F)(F)F
1 to 50 | NCC(=O)O[C@H]1CC[C@H](Nc2nn3c(-c4cnc(N)c(C(F)(F)F)c4)cnc3s2)CC1
1 to 50 | CS(=O)(=O)N1CCC(N(CCN2CCCC2)c2nn3c(-c4cnc(N)c(C(F)(F)F)c4)cnc3s2)CC1
170 | Nc1ncc(-c2cnc3sc(N4CCCNC4=O)nn23)cc1C(F)(F)F
1 to 50 | Cc1nc2sc(NC3CCN(S(C)(=O)=O)CC3)nn2c1-c1cnc(N)c(C(F)(F)F)c1
34 | Nc1ncc(-c2cnc3sc(NC4CCC5(CC4)OCCO5)nn23)cc1C(F)(F)F
162 | CS(=O)(=O)NC1CCN(c2nn3c(-c4cnc(N)c(C(F)(F)F)c4)cnc3s2)CC1
34 | CS(=O)(=O)N1CC2CN(c3nn4c(-c5cnc(N)c(C(F)(F)F)c5)cnc4s3)CC2C1 (stereo not given)
109 | Nc1ncc(-c2c(Cl)nc3sc(N[C@H]4CC[C@H](N)CC4)nn23)cc1C(F)(F)F
230 | CC(C)(C)OC(=O)NC1CCCN(c2nn3c(-c4cnc(N)c(C(F)(F)F)c4)cnc3s2)C1 (stereo not given)
24 | CS(=O)(=O)N1CCC(Nc2nn3c(-c4cnc(N)c(C(F)(F)F)c4)c(Cl)nc3s2)CC1
63 | CCNC(=O)N[C@H]1CC[C@@H](Nc2nn3c(-c4cnc(N)c(C(F)(F)F)c4)cnc3s2)CC1
1 to 50 | Nc1ncc(-c2cnc3sc(NC4CCC(=NOCCF)CC4)nn23)cc1C(F)(F)F (stereo not given)
94 | CS(=O)(=O)N1CCN2CCN(c3nn4c(-c5cnc(N)c(C(F)(F)F)c5)cnc4s3)CC2C1 (stereo not given)
